Target: EcThrRS (Escherichia coli, UniProt P0A8M3)
Experiment: tRNA aminoacylation assay, initial rates, dose-response fit
Assay type: biochemical

EcThrRS, sequence (P0A8M3 whole entry): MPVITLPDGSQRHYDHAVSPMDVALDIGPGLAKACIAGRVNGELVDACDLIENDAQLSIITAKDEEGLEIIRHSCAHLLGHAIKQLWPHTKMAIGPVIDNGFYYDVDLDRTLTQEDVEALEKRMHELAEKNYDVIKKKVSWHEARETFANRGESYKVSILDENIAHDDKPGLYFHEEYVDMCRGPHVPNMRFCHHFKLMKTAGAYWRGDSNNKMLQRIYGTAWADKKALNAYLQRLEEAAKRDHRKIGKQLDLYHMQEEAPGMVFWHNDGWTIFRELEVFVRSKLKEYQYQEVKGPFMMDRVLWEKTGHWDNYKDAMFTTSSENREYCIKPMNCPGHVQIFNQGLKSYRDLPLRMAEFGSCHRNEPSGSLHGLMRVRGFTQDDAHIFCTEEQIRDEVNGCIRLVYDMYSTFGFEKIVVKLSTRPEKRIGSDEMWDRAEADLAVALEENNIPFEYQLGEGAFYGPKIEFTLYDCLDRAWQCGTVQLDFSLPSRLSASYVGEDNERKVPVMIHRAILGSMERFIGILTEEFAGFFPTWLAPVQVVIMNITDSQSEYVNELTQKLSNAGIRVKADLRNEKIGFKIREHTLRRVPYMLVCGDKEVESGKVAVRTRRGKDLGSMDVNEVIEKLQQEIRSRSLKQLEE

`O=C(N[C@@H]1C(=O)O[C@@H]1Cc1ccc([N+](=O)[O-])cc1)c1cccc(O)c1O` [compound 1, obafluorin] was tested. Which IC50 did it give?
The IC50 was 92 ± 21 nM.

Reference: paper doi:10.1101/704981v1 (biorxiv, 2019)
